Test results from patent publication US8067454B2, “Thio-substituted Anthra [1, 2-d] imidazole- 6, 11-dione derivatives, preparation method and application thereof” (National Defense Medical Center, priority 2010, dated 2011).

Legend:
[1] = tested on: SVG p12, GBM8401 and GBM8901; assay: MTT assay, normal cell versus tumor cells (categories 39-3 to 39-7); conditions: tumor cell survival rate less than 80%; for category 39-4: survival rate higher than 80% for normal cell SVG p12 and only inhibits growth of tumor cell GBM8401: FIG. 5B
GBM8901 = assay: MTT assay, GBM8901 tumor cell; conditions: concentration 10 μM, tumor cell
[2] = tested on: telomerase (total cell lysates of lung cancer cell line H1299); assay: Telomeric Repeat Amplification Protocol (TRAP) assay, screen of telomerase inhibitors; assay type: biochemical, human; conditions: 10 μM
Method: Telomeric Repeat Amplification Protocol (TRAP) Assay:
Telomerase activity was detected by a modified version of the general TRAP protocol. Telomerase products were resolved by 10% polyacrylamide gel electrophoresis and visualized by staining with SYBER Green. As a source of telomerase, the total cell lysates derived from lung cancer cell line H1299 cells were used. Protein concentration of the lysates was assayed using Bio-Rad protein assay kit using BSA standards.
In the TRAP assay, if a compound can stabilize the G-quadruplex structure such that telomerase can not act on telomere, then the effect of inhibiting the telomerase can be achieved. In the FIG. 2A to FIG. 2C, DMSO treatment represents as the positive control group (P); while a negative control group (N) used 5 μl of 0.1 mg/ml RNase A (CLONTECH) in the assay. It could be observed that a number of telomeric fragments were detected in the positive control group (P), while none was detected in the negative control group (N). 10 μM was selected as the concentration used to screen compounds.

SVG p12 = assay: MTT assay, SVG p12 normal cell; conditions: for Cell survival rate (%) SVG p12: concentration 10 μM, normal cell
GBM8401 = assay: MTT assay, GBM8401 tumor cell; conditions: concentration 10 μM, tumor cell

O=C(Sc1nc2ccc3c(c2[nH]1)C(=O)c1ccccc1C3=O)c1ccccc1[N+](=O)[O-] [f2-1, S-6,11-dioxo-6,11-dihydro-1H-anthra[1,2-d]imidazol-2-yl 2-nitrobenzothioate]
category 39-4: survival rate higher than 80% for normal cell SVG p12 and only inhibits growth of tumor cell GBM8401 [1]: in this category
Cell survival rate (%) GBM8901 (GBM8901): 58 ± 3%
inhibition effect against telomerase [2]: exhibited inhibition effect against telomerase

C=CCSc1nc2ccc3c(c2[nH]1)C(=O)c1ccccc1C3=O [f1-19, 2-(allylthio)-1H-anthra[1,2-d]imidazole-6,11-dione]
Cell survival rate (%) SVG p12 (SVG p12): 89 ± 5%
without cell toxicity for normal cell SVGP p12 (SVG p12; survival rate higher than 80%): without cell toxicity for normal cell SVGP p12
category 39-3: survival rate higher than 80% for normal cell SVG p12 and inhibits growth of both tumor cells GBM8401 and GBM8901 ([1]; FIG. 5A): in this category
Cell survival rate (%) GBM8401 (GBM8401): 42 ± 18%
Cell survival rate (%) GBM8901 (GBM8901): 50 ± 6%
inhibition effect against telomerase [2]: exhibited inhibition effect against telomerase

Cc1cc(C(=O)Sc2nc3ccc4c(c3[nH]2)C(=O)c2ccccc2C4=O)c(C)o1 [f2-6, S-6,11-dioxo-6,11-dihydro-1H-anthra[1,2-d]imidazol-2-yl 2,5-dimethylfuran-3-carbothioate]
category 39-4: survival rate higher than 80% for normal cell SVG p12 and only inhibits growth of tumor cell GBM8401 [1]: in this category
Cell survival rate (%) GBM8901 (GBM8901): 38 ± 7%
inhibition effect against telomerase [2]: exhibited inhibition effect against telomerase

O=C1c2ccccc2C(=O)c2c1ccc1nc(SCCCCCBr)[nH]c21 [f1-9, 2-(5-bromopentylthio)-1H-anthra[1,2-d]imidazole-6,11-dione]
category 39-5: survival rate higher than 80% for normal cell SVG p12 and only inhibits growth of tumor cell GBM8901 ([1]; FIG. 5C): in this category
Cell survival rate (%) GBM8401 (GBM8401): 62 ± 19%
inhibition effect against telomerase [2]: exhibited inhibition effect against telomerase

CCN(CC)C(=O)CSc1nc2ccc3c(c2[nH]1)C(=O)c1ccccc1C3=O [f1-18, 2-(6,11-dioxo-6,11-dihydro-1H-anthra[1,2-d]imidazol-2-ylthio)-N,N-diethylacetamide]
Cell survival rate (%) SVG p12 (SVG p12): 65 ± 3%
Cell survival rate (%) GBM8401 (GBM8401): 23 ± 13%
Cell survival rate (%) GBM8901 (GBM8901): 42 ± 3%
inhibition effect against telomerase [2]: exhibited inhibition effect against telomerase
